US12492373B2, “Production method for nerve tissue” (Racthera Co., Ltd., priority 2014, dated 2025)

Key:
[1] = system: human iPS cells (1231A3 strain); experiment: Immunostaining of aggregate sections for retinal tissue markers Chx10, Rx; format: cell-based; details: day 20
Experimental: Here, as step 3, culturing was performed under the following condition 1 and condition 2: Under condition 1(+BMP), on day 6 after the start of suspension culturing, the medium was changed to a medium free of Y27632 and containing human recombinant BMP4 (manufactured by R&D) such that the final concentration of exogenous human recombinant BMP4 was 1.5 nM (55 ng/ml) (FIG. 6B, D). Under condition 2(−BMP), on day 6 after the start of suspension culturing, a half amount of the medium was changed to a medium free of Y27632 and free of a BMP signal transduction pathway activating substance, without adding exogenous human recombinant BMP4 (FIG. 6A, C).
The thus-prepared cell aggregates on day 23 after the start of suspension culturing, which were produced from the above iPS cells that underwent a preconditioning treatment in step 1 as a starting material were fixed with 4% para-formaldehyde to prepare frozen sections. These frozen sections were immunostained for Chx10 (anti-Chx10 antibody, Exalpha, sheep), which is one of the retinal tissue markers, or Rx (anti-Rx antibody, Takara, guinea pig), which is one of the retinal tissue markers. These immunostained sections were observed under an inverted fluorescence microscope.
Cell aggregate were prepared according to the method described in Example 8 under conditions in which human iPS cells using StemFit medium as a feeder-free medium were used as a starting material, TGFβR inhibiting substance (SB431542) or BMPR inhibiting substance (LDN193189) was used in step 1, Shh signal transduction pathway activating substance was used in step 2, and BMP signal transduction pathway activating substance was added or not added in step 3. Neural tissues were formed in all the aggregates formed under all these conditions on day 23 after the start of suspension culturing. The above cell aggregates were fixed with 4% para-formaldehyde to prepare frozen sections. These frozen sections were immunostained for Chx10 (anti-Chx10 antibody, Exalpha, sheep), which is one of the retinal tissue markers, or Rx (anti-Rx antibody, Takara, guinea pig), which is one of the retinal tissue markers. These immunostained sections were observed under an fluorescence microscope. […] Furthermore, it was found from the analysis of serial sections that, in a neural tissue having a high (not less than 95%) proportion of Chx10-positive cells, Rx is also strongly positive (FIG. 9B, D, F, H).
Cell aggregates were prepared according to the method described in Example 10 by using, as a starting material, human iPS cells using Essential 8 medium as a feeder-free culturing, under conditions that TGFβR inhibiting substance (SB431542) are used in step 1, a Shh signal transduction pathway activating substance are used in step 2, and a BMP signal transduction pathway activating substance are added or are not added in step 3. The cell aggregates on day 18 after the start of suspension culturing were each fixed with 4% para-formaldehyde to prepare frozen section. These frozen sections were immunostained for Chx10 (anti-Chx10 antibody, Exalpha, sheep), which is one of the retinal tissue markers, or Rx (anti-Rx antibody, Takara, guinea pig), which is one of the retinal tissue markers, and observed under a fluorescence microscope. […] Furthermore, it was found from the analysis of serial sections that, in a neural tissue having a high (not less than 95%) proportion of Chx10-positive cells, Rx is also strongly positive. […]
A Cell aggregate was formed on day 18 after the start of suspension culturing under every conditions, and a neural tissue was formed (FIG. 14, upper panel). The above cell aggregates on day 18 after the start of suspension culturing were each fixed with 4% para-formaldehyde to prepare frozen section. […]

[2] = system: human iPS cells (1231A3 strain); experiment: Neural tissue / neuroepithelium formation in cell aggregates, bright field observation; format: cell-based; details: day 20
Experimental: The above human iPS cells were treated with the cell dispersion solution by using TrypLE Select (Life Technologies), further dispersed into single cells by pipetting operation, and the above human iPS cells dispersed into single cells were suspended in 100 μl of a serum-free medium at 1.2×10^4 cells per well of a non-cell-adhesive 96-well culture plate ([…], manufactured by SUMITOMO BAKELITE), and subjected to suspension culturing at 37° C., 5% CO2. As the serum-free medium (gfCDM+KSR) therefor, a serum-free medium which is a 1:1 mixture of F-12 medium and IMDM medium supplemented with 10% KSR, 450 μM 1-monothioglycerol, 1× Chemically defined lipid concentrate was used. At the time of the start of suspension culturing (day 0 after the start of suspension culturing, start of step 2), Y27632 (final concentration 20 μM) was added to the above serum-free medium. By day 2 after the start of suspension culturing, cell aggregates were formed under both conditions with preconditioning and conditions without preconditioning (step 2 completed, step 3 start). On day 3 after the start of suspension culturing, a serum-free medium (50 μl) free of Y27632 was added. On day 6 or later after the start of suspension culturing, a half amount of the medium was changed to the above serum-free medium free of Y27632 once per 2-4 days. In the half-medium change operation, a half volume, namely 75 μl, of the medium in the culture vessel was discarded, the above fresh serum-free medium (75 μl) was added to make the total medium amount 150 μl. […]
At the time of the start of suspension culturing (day 0 after the start of suspension culturing, start of step 2), the cells were cultured under the following 2 conditions including condition 1 and condition 2. As condition 1(+SAG), at the time of the start of suspension culturing, Y27632 (final concentration 20 μM) and SAG (Shh signal transduction pathway activating substance, 300 nM) were added to the above serum-free medium. As condition 2(−SAG), at the time of the start of suspension culturing, Y27632 (final concentration 20 μM) was added to the above serum-free medium and SAG was not added. By day 2 after the start of suspension culturing, cell aggregates were formed (step 2 completed, step 3 start) under both conditions. On day 3 after the start of suspension culturing, a medium (50 μl) free of Y27632, SAG and containing human recombinant BMP4 (manufactured by R&D) was added such that the final concentration of exogenous human recombinant BMP4 was 1.5 nM (55 ng/ml). On day 6 after the start of suspension culturing, a half amount of the medium was changed with a serum-free medium free of Y27632, SAG and human recombinant BMP4. Thereafter, a half amount of the medium was changed, once every 2-4 days, with the above serum-free medium free of Y27632, SAG, and human recombinant BMP4.
The thus-prepared cells were subjected to bright field observation on day 18 after the start of suspension culturing under an inverted microscope (KEYENCE) (FIG. 15).
At the time of the start of suspension culturing (day 0 after the start of suspension culturing, start of step 2), the cells were cultured under the following 2 conditions including condition 1 and condition 2. As condition 1(+SAG), at the time of the start of suspension culturing, Y27632 (final concentration 20 μM) and SAG (Shh signal transduction pathway activating substance, final concentration 30 nM) were added to the above serum-free medium. As condition 2(−SAG), at the time of the start of suspension culturing, Y27632 (final concentration 20 μM) was added to the above serum-free medium and SAG was not added. By day 2 after the start of suspension culturing, cell aggregates were formed under both conditions (step 2 completed, step 3 start). […]

[3] = A83-01 0.5 μM 1 day in step 1, SAG 30 nM in step 2, BMP4 1.5 nM on day 3

Compound | proportion of Chx10-positive cells in the total cells ([1]; A83-01 0.5 μM and SAG 300 nM in step 1, substance added in step 2 (SAG 30 nM, Purmorphamine 0.2 μM or human recombinant Shh 300 ng/ml), BMP4 1.5 nM on day 3) | proportion of Chx10-positive cells in the total cells [1, 3] | cell aggregate and neural tissue formation [2, 3] | cell aggregate and neural tissue formation ([2]; step 1 for 1 day: A83-01 0.5 μM alone or with SAG 300 nM, Purmorphamine 0.2 μM, or human recombinant Shh 50 ng/ml or 300 ng/ml, SAG 30 nM in step 2, BMP4 1.5 nM on day 3)
c1ccc2c(Oc3nc(Nc4ccc(N5CCOCC5)cc4)c4ncn(C5CCCCC5)c4n3)cccc2c1 [Purmorphamine, 9-cyclohexyl-N-[4-(4-morpholinyl)phenyl]-2-(1-naphthalenyloxy)-9H-purin-6-amine] | about 90% | – | – | –
Cc1cccc(-c2nn(C(=S)Nc3ccccc3)cc2-c2ccnc3ccccc23)n1 [A83-01, 3-(6-methyl-2-pyridinyl)-N-phenyl-4-(4-quinolinyl)-1H-pyrazole-1-carbothioamide] | – | about 20% | a neural tissue can be formed efficiently | a neural tissue can be produced efficiently
